These results are taken from US20110124086A1, “Hepatitis C Virus Culture System” (The Regents of the University of California, priority 2009, published 2011).

What all share (assay type): cell-based, Hepatitis C virus
For assay [1], the system named is HCV of genotype 1b (CG1b). Nature of the assay: Antiviral activity of IFNα in Huh7 cells infected with FH-CG1bRbz hepatocyte-derived medium, HCV RNA by qRT-PCR. As to conditions: IFNα 100 U/ml once, 48 hrs after infection, analysed after 24 hrs. On the procedure:
Huh7 cells were infected with hepatocyte-derived medium. Then, after 48 hrs, cells were treated with 0 or 100 U/ml of IFNα once and analyzed for HCV RNA by qRT-PCR after 24 hrs. N.D. indicates not detectable or below the level of detection.
Huh7 human hepatoma cells were transfected with in vitro-transcribed JFH1 RNA and cultured, as previously described (Choi et al. (2004) Hepatology 39:91-9). Telomerase-reconstituted primary human hepatocytes were transfected with pEF-CG1 bRbz/Neo, pEF-CG1 bGNDRbz/Neo, or control EF-driven vector alone as described for Huh7, and cell clones that are stably transfected with these constructs were selected and maintained in G418-containing medium (Invitrogen) (Wege et al. (2004) Gastroenterology 124:432-44). For virus infection, the extracellular medium from JFH1-transfected cells and CG1b transfected cell clones was cleared by low speed centrifugation at 5,000 rpm for 10 min and concentrated ˜10 fold by ultracentrifugation at 21,000 rpm for 6.5 hrs at 4° C. The medium was also pre-treated with RNase (and also with DNase for CG1b medium) for 30 min at room temperature prior to these centrifugation steps. Then, the concentrated virus samples were used to inoculate naïve Huh7 or Huh7.5 cells (Wakita et al. (2005) Nat. Med. 11:791-6). […]
(§1) HCV RNA was quantified by quantitative reverse transcriptase polymerase chain reaction (qRT-PCR) as described. […]

Assay [2] deals with HCV genotype 1b (CG1b). Nature of the assay: HCV infectivity of medium from Jak2 inhibitor II-treated FH-CG1bRbz cells inoculated on Huh7 cells, HCV RNA by qRT-PCR. Conditions: HCV RNA after 48 hrs, later passage FH cell culture medium. On the procedure:
(§2) Cg1bRbz cells were treated with C5 (1 μM) or Jak2 inhibitor II (10 and 50 μM) for 48 or 96 hrs and analyzed for intracellular HCV RNAs by qRT-PCR. Huh7 cells transfected with JFH1 RNA were also used as a control. Bottom right—Huh7 cells were inoculated with virus samples prepared from control and Jak2 inhibitor II-treated later passage FH cell culture medium and analyzed for HCV RNA after 48 hrs by qRT-PCR.
(§3) Huh7 human hepatoma cells were transfected with in vitro-transcribed JFH1 RNA and cultured, as previously described (Choi et al. (2004) Hepatology 39:91-9). Telomerase-reconstituted primary human hepatocytes were transfected with pEF-CG1 bRbz/Neo, pEF-CG1 bGNDRbz/Neo, or control EF-driven vector alone as described for Huh7, and cell clones that are stably transfected with these constructs were selected and maintained in G418-containing medium (Invitrogen) (Wege et al. (2004) Gastroenterology 124:432-44). […]
as §1
(§4) It was then examined whether suppressing the hepatocyte innate immunity by inhibiting Jak/Stat pathway and/or PKR could increase the HCV titer in Applicants' FH cell clones and therefore, increase the infectivity of CG1b. HCV RNA level was analyzed in FH-CG1 bRbz cells after 48 or 96 hr incubation with C5, an inhibitor of PKR, or Jak2 Inhibitor II.

For assay [3], the system named is JFH1 (HCV genotype 2a) in Huh7 cells. Nature of the assay: Effect of PKR and Jak2 inhibitor on intracellular HCV RNA in Huh7 cells transfected with JFH1 RNA, qRT-PCR. Conditions: C5 1 μM or Jak2 inhibitor II 10 and 50 μM, 48 or 96 hrs. How it is done: as §2, §3, §1, §4
Assay [4] concerns HCV genotype 1b (CG1b) in FH-CG1bRbz cells. Nature of the assay: Effect of PKR and Jak2 inhibitor on intracellular HCV RNA in FH-CG1bRbz cells, qRT-PCR. As to conditions: C5 1 μM or Jak2 inhibitor II 10 and 50 μM, 48 or 96 hr incubation. How it is done: as §2
HCV RNA was quantified by quantitative reverse transcriptase polymerase chain reaction (qRT-PCR) as described. Intracellular HCV RNA levels were normalized by glyceraldehydes 3-phosphate dehydrogenase mRNA content. Standard curves were generated using in vitro-transcribed HCV RNA's. Control reactions containing no reverse transcriptase were also carried out as controls. HCV protein levels were visualized by immunofluorescence staining followed by confocal microscopy. […]
as §4

Regarding interferon alpha [IFNα], the results for the “HCV titer (HCV RNA) in CG1b-infected Huh7 cells” value in assay [1] and in assay [1] (listed as interferon alpha) were “decreased HCV titer” and “decreased”, respectively.

As to `BrC1C(Br)C(Br)C(Br)C(Br)C1Br` (centres unmarked) [Jak2 Inhibitor II], the “HCV infectivity of medium from Jak2 inhibited FH-CG1bRbz cells compared to medium from control cells” value in assay [2] is “increased only modestly”. The “intracellular HCV RNA in Huh7 cells transfected with JFH1 RNA” value in assay [3] is recorded as “an increase in the intracellular HCV RNA”. Further, in assay [4], the “intracellular HCV RNA in FH-CG1bRbz cells” value is “intracellular HCV RNA increased”.
